In ChEMBL document CHEMBL1932919, “Dirlotapide as a model substrate to refine structure-based drug design strategies on CYP3A4-catalyzed metabolism” (Bioorg Med Chem Lett, 2012) one finds Drug metabolism data, which are given here for 1 compound.

Structures are written as SMILES.

For the series, the system named is Liver microsomes. The series can be described thus: Drug metabolism in human liver microsomes at 20 mM. Conditions: 20000 µM; call rule not given here. The format is ADME, Microsome. Background: Microsomes from liver hold many membrane-bound enzymes, among them those of drug oxidation.

Turning to `CN(Cc1ccccc1)C(=O)[C@@H](NC(=O)c1cc2cc(NC(=O)c3ccccc3-c3ccc(C(F)(F)F)cc3)ccc2n1C)c1ccccc1` [DIRLOTAPIDE], the Drug metabolism result is “Active”.
